Assay results from patent US5811391A, “Cyclic CS-1 peptidomimetics, compositions and methods of using same” (Cytel Corporation, priority 1995, dated 1998).
Positions of bridges follow the written chain, without caps; N, C: chain ends. Residues, ends and D or L forms follow the SMILES beside them.

Molecular target: VLA-4 (Homo sapiens, UniProt P05556+P13612)
Experiment: In vitro binding assay: 51Cr-labeled Jurkat cells to solid phase-bound CS-1 peptide (SEQ ID NO:5)
Assay type: cell-based
Set-up: inflammatory cells that contain the VLA-4 receptor [Jurkat cells; host or cells: Jurkat cells (human T lymphoblastic line)
Conditions: Jurkat cells, CS-1
Procedure: Binding inhibition is measured here as a concentration of peptide that inhibits one-half the binding between a standard number of Jurkat cells and a standard amount of CS-1 peptide bound to the surface of a microtiter plate well. Those concentrations are conveniently expressed as IC50 values, smaller numbers indicating a lower concentration required to inhibit 50 percent binding and therefore greater potency. Further specifics of this assay are provided hereinafter.
Jurkat cells (ATCC TIB 152), a human T lymphoblastic line, labeled with ^51 chromium were used to assay in vitro binding inhibition provided by various peptides discussed herein.
The plates were prepared as follows: The 25-mer CS-1 peptide (SEQ ID NO:5) dissolved at 0.5-1 μg/ml in a buffer of 0.1M NaHCO3 at pH 9.5 that also contained 10 μg/ml of bovine serum albumin (BSA) or a conjugate of the CS-1 peptide linked to ovalbumin (CS-1-OVA) dissolved at 1-2.5 μg/ml in the same buffer was used as the substrate. Each well of the microtiter plates was coated with 50 μl of substrate or buffer alone for controls. The wells were permitted to dry out completely and were then rinsed twice with PBS at pH 7.4. Non-specific binding sites of each well were then blocked using 200 μl per well of RPMI/1 percent BSA for two hours at room temperature. Both solid phase-affixed substrates provided similar results.
Jurkat cells (3-5×10^6 cells) were placed into a 15 ml FALCON™ round-bottom tube with a cap. The tube was centrifuged, and the extra medium was then removed.
Two hundred microliters of a ^51 Cr labeling solution were added to the centrifuged cells and maintained in contact with the cells for 90-120 minutes in a warm room. This procedure typically provides about 50,000-100,000 cpm/well with about 80-100 percent cell viability. Longer contact times provide a greater amount of labeling but lower cell viability.
The labeled cells were washed with (i) complete medium, (ii) 1mM EDTA/PBS and then (iii) RPM1/1 percent BSA free of serum components. The cells were centrifuged after each washing. The cells were finally resuspended in serum-free RPMI/1 percent BSA at a concentration of 1×10^6 viable cells/ml, which provides a concentration that is diluted by one-half in the assay.
Cyclic inhibitor peptides were prepared as stock solutions at 20 mg/ml in DMSO in 1.5 ml cryogenic screwcap vials, and were stored at -70° C. Using FLOW™ round-bottom or V-bottom microtiter plates, the inhibitor peptides were prepared at twice the assay concentration in RPMI/1 percent BSA at 60 μl/well.
Four initial dilutions were typically used.
The ^51 Cr-labeled cells (1×10^6 cells at 60 μl/well) were then admixed with the diluted cyclic peptide solutions. The admixtures were maintained at room temperature (about 22° C.) for 30 minutes.
One hundred microliters of each inhibitor peptide/cell admixture were transferred to the substrate-coated wells. This was done in triplicate for each dilution. The resulting plates were incubated for 30 minutes at 37° C. and then washed gently three times with RPMI/1 percent BSA at 200 μl/well. Binding was observed microscopically, particularly after the second wash.
The bound cells were then lysed by the addition of a 0.5 percent solution of sodium dodecylsulfate in water at 100 μl/well. The resulting solutions were then processed for counting and calculation of IC50 values following usual procedures. Appropriate positive and negative controls were used with each plate so that the results of separate assays could be normalized and compared.
The potency data of Table 1 and Table 2 are so normalized. The absolute IC50 value for the peptide of SEQ ID NO:7 is 0.3 μM.

[1] = Table 1, normalized IC50 potency relative to standard peptide SEQ ID NO:6 (=1)
[2] = Table 2, normalized IC50 potency relative to standard peptide SEQ ID NO:6

Sequence of VLA-4 (P13612 34-1032): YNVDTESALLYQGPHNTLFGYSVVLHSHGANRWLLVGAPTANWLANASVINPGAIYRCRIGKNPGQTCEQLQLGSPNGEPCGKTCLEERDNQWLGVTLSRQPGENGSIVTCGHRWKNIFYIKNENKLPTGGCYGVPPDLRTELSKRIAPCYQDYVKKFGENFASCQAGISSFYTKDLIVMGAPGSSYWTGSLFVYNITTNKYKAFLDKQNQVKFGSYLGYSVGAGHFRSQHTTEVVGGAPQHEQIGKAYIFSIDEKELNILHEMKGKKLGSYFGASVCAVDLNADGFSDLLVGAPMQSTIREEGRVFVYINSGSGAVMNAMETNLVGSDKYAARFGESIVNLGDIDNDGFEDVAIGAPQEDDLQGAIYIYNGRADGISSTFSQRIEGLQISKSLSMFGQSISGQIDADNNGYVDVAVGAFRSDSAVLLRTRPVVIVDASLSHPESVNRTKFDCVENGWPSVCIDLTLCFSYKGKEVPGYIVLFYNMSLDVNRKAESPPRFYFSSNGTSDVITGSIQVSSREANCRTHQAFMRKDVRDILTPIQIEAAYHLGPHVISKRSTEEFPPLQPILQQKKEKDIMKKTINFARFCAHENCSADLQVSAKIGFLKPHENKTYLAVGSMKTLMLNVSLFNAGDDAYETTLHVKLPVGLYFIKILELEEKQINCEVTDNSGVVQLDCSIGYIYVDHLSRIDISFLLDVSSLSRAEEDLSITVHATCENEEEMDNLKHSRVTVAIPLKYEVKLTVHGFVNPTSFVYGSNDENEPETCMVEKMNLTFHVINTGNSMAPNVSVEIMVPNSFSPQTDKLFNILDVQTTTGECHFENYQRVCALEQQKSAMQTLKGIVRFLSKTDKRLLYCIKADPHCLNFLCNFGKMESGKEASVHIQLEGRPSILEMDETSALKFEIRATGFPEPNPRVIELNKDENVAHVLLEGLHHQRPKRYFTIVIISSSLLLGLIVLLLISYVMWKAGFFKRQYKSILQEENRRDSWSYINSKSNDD
Sequence of VLA-4 (P05556 21-798): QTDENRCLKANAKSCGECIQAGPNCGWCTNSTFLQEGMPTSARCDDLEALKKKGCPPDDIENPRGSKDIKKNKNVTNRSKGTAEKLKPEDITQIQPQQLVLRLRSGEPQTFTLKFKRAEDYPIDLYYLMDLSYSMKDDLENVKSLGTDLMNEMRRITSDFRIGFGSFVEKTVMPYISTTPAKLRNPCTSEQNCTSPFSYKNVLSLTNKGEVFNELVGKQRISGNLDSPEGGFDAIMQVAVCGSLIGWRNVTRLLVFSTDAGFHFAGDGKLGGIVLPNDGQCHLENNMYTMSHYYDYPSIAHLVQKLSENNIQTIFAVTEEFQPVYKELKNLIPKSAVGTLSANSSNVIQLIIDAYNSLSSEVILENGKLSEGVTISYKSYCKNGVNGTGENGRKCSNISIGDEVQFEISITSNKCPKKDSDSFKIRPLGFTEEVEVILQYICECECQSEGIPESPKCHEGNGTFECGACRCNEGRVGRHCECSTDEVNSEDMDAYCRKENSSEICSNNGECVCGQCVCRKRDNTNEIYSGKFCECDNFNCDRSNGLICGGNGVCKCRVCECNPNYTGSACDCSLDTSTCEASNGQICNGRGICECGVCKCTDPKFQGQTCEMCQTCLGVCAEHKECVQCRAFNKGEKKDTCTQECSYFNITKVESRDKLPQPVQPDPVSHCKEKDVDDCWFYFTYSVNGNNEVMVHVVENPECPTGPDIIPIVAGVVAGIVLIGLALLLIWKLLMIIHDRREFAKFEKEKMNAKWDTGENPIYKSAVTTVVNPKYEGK

| Relative Potency [1] | Relative Potency [2] | SMILES |
| --- | --- | --- |
| 41 |  | CC(=O)N[C@@H](Cc1ccccc1)C(=O)N[C@@H](CS)C(=O)N[C@@H](CC(=O)O)C(=O)N[C@@H](Cc1ccccc1)C(=O)N[C@@H](CS)C(N)=O [SEQ ID NO:18, AcFCDFC-NH2] (Ac-FCDFC-NH2) |
| 19 |  | CC(C)C[C@@H]1NC(=O)[C@H](Cc2ccccc2)NC(=O)[C@H](CCC(=O)O)NC(=O)[C@@H](N)CSSC[C@@H](C(N)=O)NC(=O)[C@@H]2CCCN2C(=O)[C@H](Cc2ccccc2)NC(=O)[C@H](CC(=O)O)NC1=O [SEQ ID NO:20, CEFLDFPC-NH2] (H-CEFLDFPC-NH2; disulfide 1-8) |
| 19 |  | CC(C)C[C@@H]1NC(=O)[C@H](Cc2ccccc2)NC(=O)[C@@H](N)CSSC[C@@H](C(N)=O)NC(=O)[C@H](C(C)C)NC(=O)[C@H]([C@@H](C)O)NC(=O)[C@H](CO)NC(=O)[C@@H]2CCCN2C(=O)[C@H](Cc2ccccc2)NC(=O)[C@H](CC(=O)O)NC1=O [SEQ ID NO:21, CFLDFPSTVC-NH2] (H-CFLDFPSTVC-NH2; disulfide 1-10) |
| 9 |  | CC(C)C[C@@H]1NC(=O)[C@H](Cc2ccccc2)NC(=O)[C@H](CCC(=O)O)NC(=O)[C@@H](N)CSSC[C@@H](C(N)=O)NC(=O)[C@H]([C@@H](C)O)NC(=O)[C@H](CO)NC(=O)[C@@H]2CCCN2C(=O)[C@H](Cc2ccccc2)NC(=O)[C@H](CC(=O)O)NC1=O [SEQ ID NO:22, CEFLDFPSTC-NH2] (H-CEFLDFPSTC-NH2; disulfide 1-10) |
| 6 |  | CC(C)C[C@@H]1NC(=O)[C@H](Cc2ccccc2)NC(=O)[C@H](CCC(=O)O)NC(=O)[C@@H](N)CSSC[C@@H](C(N)=O)NC(=O)[C@H](CO)NC(=O)[C@@H]2CCCN2C(=O)[C@H](Cc2ccccc2)NC(=O)[C@H](CC(=O)O)NC1=O [SEQ ID NO:24, CEFLDFPSC-NH2] (H-CEFLDFPSC-NH2; disulfide 1-9) |
| 1 |  | CC(=O)N[C@@H](Cc1ccccc1)C(=O)N[C@H]1CSSC[C@@H](C(=O)N2CCC[C@H]2C(N)=O)NC(=O)[C@H](CC(=O)O)NC1=O [SEQ ID NO:29, AcFCDCP-NH2] (Ac-FCDCP-NH2; disulfide 2-4) |
| 31 |  | CC(C)C[C@@H]1NC(=O)[C@H](CCC(=O)O)NC(=O)[C@@H]2CCCN2C(=O)[C@@H](N)CSSC[C@@H](C(N)=O)NC(=O)[C@H](CO)NC(=O)[C@@H]2CCCN2C(=O)[C@H](Cc2ccccc2)NC(=O)[C@H](CC(=O)O)NC1=O [SEQ ID NO:33, CPELDFPSC-NH2] (H-CPELDFPSC-NH2; disulfide 1-9) |
|  | 135 | CC(=O)N[C@H]1CSSC[C@@H](C(N)=O)NC(=O)[C@@H]2CCCN2C(=O)[C@H](Cc2ccccc2)NC(=O)[C@H](CC(=O)O)NC(=O)[C@H](CC(C)C)NC(=O)[C@H](Cc2ccccc2)NC1=O [drawing 10] (Ac-CFLDFPC-NH2; disulfide 1-7) |
|  | 131 | NC(=O)[C@@H]1CSSC[C@H](NC(=O)[C@@H](N)Cc2ccccc2)C(=O)N[C@@H](CC(=O)O)C(=O)N[C@@H](Cc2ccccc2)C(=O)N2CCC[C@H]2C(=O)N1 [drawing 11] (H-FCDFPC-NH2; disulfide 2-6) |
|  | 122 | CC(C)C[C@@H]1NC(=O)[C@H](Cc2ccccc2)NC(=O)[C@@H](N)CSSC[C@@H](C(N)=O)NC(=O)[C@H](CO)NC(=O)[C@@H]2CCCN2C(=O)[C@H](Cc2ccccc2)NC(=O)[C@H](CC(=O)O)NC1=O [drawing 12] (H-CFLDFPSC-NH2; disulfide 1-8) |
|  | 52.6 | CC(=O)N[C@@H](Cc1ccccc1)C(=O)N[C@H]1CSSC[C@@H](C(N)=O)NC(=O)[C@H](Cc2ccccc2)NC(=O)[C@H](CC(=O)O)NC1=O [drawing 21] (Ac-FCDFC-NH2; disulfide 2-5) |
|  | 9.39 | CC(C)C[C@@H]1NC(=O)[C@H](Cc2ccccc2)NC(=O)[C@H](CCC(=O)O)NC(=O)[C@@H]2CCCN2C(=O)CNC(=O)[C@@H](N)CSSC[C@@H](C(N)=O)NC(=O)[C@H](Cc2ccccc2)NC(=O)[C@H](CC(=O)O)NC1=O [drawing 30] (H-CGPEFLDFC-NH2; disulfide 1-9) |
|  | 6.26 | CC(C)C[C@@H]1NC(=O)[C@H](Cc2ccccc2)NC(=O)[C@H](CCC(=O)O)NC(=O)[C@@H]2CCCN2C(=O)[C@@H](N)CSSC[C@@H](C(N)=O)NC(=O)[C@H](CO)NC(=O)[C@@H]2CCCN2C(=O)[C@H](Cc2ccccc2)NC(=O)[C@H](CC(=O)O)NC1=O [drawing 35] (H-CPEFLDFPSC-NH2; disulfide 1-10) |

Further lines, the molecule ahead of its results:

| SMILES | Relative Potency [1] | Relative Potency [2] |
| --- | --- | --- |
| CC(=O)N[C@@H](Cc1ccccc1)C(=O)N[C@H]1CSSC[C@@H](C(N)=O)NC(=O)[C@H](Cc2ccccc2)NC(=O)[C@H](CC(=O)O)NC1=O [SEQ ID NO:17, AcFCDFC-NH2] (Ac-FCDFC-NH2; disulfide 2-5) | 52 |  |
| CC(C)C[C@@H]1NC(=O)[C@H](Cc2ccccc2)NC(=O)[C@H](CCC(=O)O)NC(=O)[C@@H]2CCCN2C(=O)[C@@H](N)CSSC[C@@H](C(N)=O)NC(=O)[C@H](CO)NC(=O)[C@@H]2CCCN2C(=O)[C@H](Cc2ccccc2)NC(=O)[C@H](CC(=O)O)NC1=O [SEQ ID NO:19, CPEFLDFPSC-NH2] (H-CPEFLDFPSC-NH2; disulfide 1-10) | 6 |  |
| CC(C)C[C@@H]1NC(=O)[C@H](Cc2ccccc2)NC(=O)[C@H](CCC(=O)O)NC(=O)[C@@H]2CCCN2C(=O)CNC(=O)[C@@H](N)CSSC[C@@H](C(N)=O)NC(=O)[C@H](Cc2ccccc2)NC(=O)[C@H](CC(=O)O)NC1=O [SEQ ID NO:23, CGPEFLDFC-NH2] (H-CGPEFLDFC-NH2; disulfide 1-9) | 9 |  |
| NC(=O)[C@@H]1CSSC[C@H](NC(=O)[C@@H](N)Cc2ccccc2)C(=O)N[C@@H](CC(=O)O)C(=O)N[C@@H](Cc2ccccc2)C(=O)N1 [SEQ ID NO:25, FCDFC-NH2] (H-FCDFC-NH2; disulfide 2-5) | 3 |  |
| CC(C)C[C@@H]1NC(=O)[C@@H](N)CSSC[C@@H](C(N)=O)NC(=O)[C@H](Cc2ccccc2)NC(=O)[C@H](CC(=O)O)NC1=O [SEQ ID NO:28, CLDFC -NH2] (H-CLDFC-NH2; disulfide 1-5) | 1 |  |
| NC(=O)[C@@H]1CCCN1C(=O)[C@@H]1CSSC[C@H](NC(=O)[C@@H](N)Cc2ccccc2)C(=O)N[C@@H](CC(=O)O)C(=O)N1 [SEQ ID NO:30, FCDCP-NH2] (H-FCDCP-NH2; disulfide 2-4) | < 1 |  |
| CC(C)C[C@@H]1NC(=O)[C@H](Cc2ccccc2)NC(=O)[C@@H](N)CSSC[C@@H](C(N)=O)NC(=O)[C@@H]2CCCN2C(=O)[C@H](Cc2ccccc2)NC(=O)[C@H](CC(=O)O)NC1=O [drawing 7] (H-CFLDFPC-NH2; disulfide 1-7) |  | 254 |
| CC(C)C[C@@H]1NC(=O)[C@H](Cc2ccccc2)NC(=O)[C@H](CCC(=O)O)NC(=O)[C@@H]2CCCN2C(=O)[C@@H](N)CSSC[C@@H](C(N)=O)NC(=O)[C@@H]2CCCN2C(=O)[C@H](Cc2ccccc2)NC(=O)[C@H](CC(=O)O)NC1=O [drawing 23] (H-CPEFLDFPC-NH2; disulfide 1-9) |  | 31.3 |
| CC(C)C[C@@H]1NC(=O)[C@H](Cc2ccccc2)NC(=O)[C@H](CCC(=O)O)NC(=O)[C@@H](N)CSSC[C@@H](C(N)=O)NC(=O)[C@@H]2CCCN2C(=O)[C@H](Cc2ccccc2)NC(=O)[C@H](CC(=O)O)NC1=O [drawing 26] (H-CEFLDFPC-NH2; disulfide 1-8) |  | 18.8 |
| CC(C)C[C@@H]1NC(=O)[C@H](Cc2ccccc2)NC(=O)[C@H](CCC(=O)O)NC(=O)[C@@H](N)CSSC[C@@H](C(N)=O)NC(=O)[C@H](CO)NC(=O)[C@@H]2CCCN2C(=O)[C@H](Cc2ccccc2)NC(=O)[C@H](CC(=O)O)NC1=O [drawing 34] (H-CEFLDFPSC-NH2; disulfide 1-9) |  | 6.26 |
| NC(=O)[C@@H]1CSSC[C@H](NC(=O)[C@@H](N)Cc2ccccc2)C(=O)N[C@@H](CC(=O)O)C(=O)N[C@@H](Cc2ccccc2)C(=O)N1 [drawing 39] (H-FCDFC-NH2; disulfide 2-5) |  | 2.52 |
